In PubChem BioAssay (NCI):
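Assay format: 96-well plates, 48-hour exposure. GI50 = concentration required for 50% inhibition of growth. Definition used: TGI = concentration required for complete inhibition of growth.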

Experiments:
Assay in all cases: NCI anticancer screen, dose series, 48 h
A498 renal = system: A498 renal
ACHN renal = system: ACHN renal
K-562 leukemia = system: K-562 leukemia
NCI-H226 lung = system: NCI-H226 lung
NCI-H522 lung = system: NCI-H522 lung
OVCAR-8 ovarian = system: OVCAR-8 ovarian
PC-3 prostate = system: PC-3 prostate
SK-OV-3 ovarian = system: SK-OV-3 ovarian
SR leukemia = system: SR leukemia
U251 CNS = system: U251 CNS

Row | SMILES | TGI (A498 renal) [µM] | TGI (ACHN renal) [µM] | TGI (K-562 leukemia) [µM] | TGI (NCI-H226 lung) [µM] | TGI (NCI-H522 lung) [µM] | TGI (OVCAR-8 ovarian) [µM] | TGI (PC-3 prostate) [µM] | TGI (SK-OV-3 ovarian) [µM] | TGI (SR leukemia) [µM] | TGI (U251 CNS) [µM] | GI50 (A498 renal) [µM] | GI50 (ACHN renal) [µM] | GI50 (K-562 leukemia) [µM] | GI50 (NCI-H226 lung) [µM] | GI50 (NCI-H522 lung) [µM] | GI50 (OVCAR-8 ovarian) [µM] | GI50 (PC-3 prostate) [µM] | GI50 (SK-OV-3 ovarian) [µM] | GI50 (SR leukemia) [µM] | GI50 (U251 CNS) [µM]
1 | CC(CCC=O)CCOCc1ccccc1 (stereo not given) | > 100 | > 100 | > 100 | > 100 | > 100 | > 100 | > 100 | > 100 | > 80.7 | > 100 | – | – | – | – | – | – | – | – | – | –
2 | NC(=Nc1c([N+](=O)[O-])cnc2ccccc12)N1CCOCC1 | > 100 | > 100 | > 100 | > 100 | > 100 | > 100 | > 100 | > 100 | > 100 | > 100 | – | – | – | – | – | – | – | – | – | –
3 | O=C1NC(=O)C(c2cnc3ccccn23)=C1c1cn2c3c(cc(F)cc13)CN(C(=O)N1CCCCC1)CC2 | 11.5 | > 72.5 | > 100 | 54.8 | 40.1 | > 92.1 | 41.8 | 71.9 | 29.1 | 24.3 | 0.0108 | 1.37 | 3.39 | 3.7 | 13.9 | 6.89 | 4.17 | 15.5 | 1.84 | 1.89
